According to patent US9023789B2, “Amylin analogs and pharmaceutical compositions thereof” (Novo Nordisk A/S, priority 2012, dated 2015):
Where two headings read alike, the source gives them in different places. Numbered stars: 1 amine (or outer) side, 2 acyl side, 3 side chain; on linkers, the order of the positions; unused ones are H or OH. Bridge positions count the residues as written; N and C are the ends. Side chains are listed from the residue outwards. Peptide text beside a SMILES is read from it. * marks the point of attachment. C20 diacid = O=C(O)CCCCCCCCCCCCCCCCCCC(=O)*; γGlu = O=C(O)[C@H](CCC(=O)[*:2])N[*:1]; AEEA = NCCOCCOCC(=O)O

Columns and labels:
rat calcitonin receptor = target: T1, rat calcitonin receptor (Rattus norvegicus, UniProt P32214); assay: ASSAY (VIII) binding to the rat calcitonin receptor; details: Table 7, read-out: rCTR bind IC50
T1 construct: expressed in transfected cells; host or cells: BHK tk'ts 13 (transient, FuGENE 6), membranes
T1 sequence (P32214 25-479 isoform P32214-2 limits assumed): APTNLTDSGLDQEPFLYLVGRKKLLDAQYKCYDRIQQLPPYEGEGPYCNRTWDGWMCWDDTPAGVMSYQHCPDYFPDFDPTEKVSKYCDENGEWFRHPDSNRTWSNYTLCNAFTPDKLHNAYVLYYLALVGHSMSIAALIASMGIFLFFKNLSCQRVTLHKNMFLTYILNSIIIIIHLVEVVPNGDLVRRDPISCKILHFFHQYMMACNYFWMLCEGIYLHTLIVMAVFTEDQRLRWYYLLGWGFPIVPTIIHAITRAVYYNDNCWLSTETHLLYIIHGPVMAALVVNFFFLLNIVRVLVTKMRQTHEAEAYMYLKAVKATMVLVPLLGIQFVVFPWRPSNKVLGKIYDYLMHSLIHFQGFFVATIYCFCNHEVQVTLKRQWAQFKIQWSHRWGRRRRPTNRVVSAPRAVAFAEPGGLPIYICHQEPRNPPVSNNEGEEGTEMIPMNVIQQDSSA
Procedure, shortened: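 Transfect BHK tk′ts 13 cells transiently with rat calcitonin receptor, culture in DMEM containing 10% FBS, collect cells about 48 hours later, then prepare membranes.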

[1] = target: T2, rat amylin receptor (rat calcitonin receptor + rat RAMP 3) (Rattus norvegicus, UniProt P32214+Q9JJ73); assay: ASSAY (VI) binding to the rat amylin receptor; details: for IC50: binding to rat amylin receptor, read-out: rAmylin-R bind IC50
T2 construct: expressed in transfected cells; host or cells: BHK tk'ts 13 (transient, FuGENE 6), membranes
T2 sequence (P32214 25-479 isoform P32214-2 limits assumed): T1 sequence (P32214 25-479 isoform P32214-2 limits assumed)
T2 sequence (Q9JJ73 23-147 partner): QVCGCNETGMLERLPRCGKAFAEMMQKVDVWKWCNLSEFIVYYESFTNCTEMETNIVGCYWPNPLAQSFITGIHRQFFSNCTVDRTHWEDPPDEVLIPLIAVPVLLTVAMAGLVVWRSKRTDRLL
Procedure, shortened: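 This assay measured binding to the rat amylin receptor. BHK tk′ts 13 cells were transiently transfected with the rat calcitonin receptor using FuGENE® 6 (Roche), following the manufacturer's recommendations. About 48 hours after transfection, the cells were harvested and membranes were prepared from them for the binding determination.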

[2] = target: T3, human amylin 3(a) receptor (human calcitonin receptor + RAMP-3) in BHK570 cells (Homo sapiens, UniProt O60896+P30988); assay: ASSAY (II)a functional assay, human amylin receptor (CRE luciferase); format: cell-based
T3 construct: expressed in transfected cells
Procedure, shortened: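 Ligand exposure 3 h at 37 °C, 5% CO2 in DMEM with 10% FBS, 10 mM Hepes pH 7.4. cAMP-driven luciferase read by luminescence after 30 min LucLite at room temperature.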

[3] = target: T4, human amylin receptor (membranes from Amylin 3(a)/CRE-luc cells) (Homo sapiens, UniProt O60896+P30988); assay: ASSAY (V) binding to the human amylin receptor (SPA, 125I-rat amylin);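 note: competition binding of cell membranes (35 ng/µL) mixed with SPA beads in 384-well plates at 40 µL total volume, read by scintillation counting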
T4 construct: expressed in transfected cells
T4 sequence (P30988 25-474): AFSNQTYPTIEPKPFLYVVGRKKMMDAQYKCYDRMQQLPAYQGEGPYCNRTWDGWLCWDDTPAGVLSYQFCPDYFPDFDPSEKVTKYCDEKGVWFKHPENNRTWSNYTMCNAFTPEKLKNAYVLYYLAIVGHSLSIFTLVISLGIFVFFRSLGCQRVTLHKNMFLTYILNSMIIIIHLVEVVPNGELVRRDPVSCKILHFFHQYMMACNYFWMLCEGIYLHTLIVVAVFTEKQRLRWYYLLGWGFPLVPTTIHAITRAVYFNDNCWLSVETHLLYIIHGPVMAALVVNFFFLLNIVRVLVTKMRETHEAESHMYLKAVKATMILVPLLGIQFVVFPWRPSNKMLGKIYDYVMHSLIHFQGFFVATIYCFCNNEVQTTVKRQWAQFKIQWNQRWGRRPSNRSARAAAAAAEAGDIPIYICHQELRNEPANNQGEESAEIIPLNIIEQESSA
T4 sequence (O60896 24-148 partner): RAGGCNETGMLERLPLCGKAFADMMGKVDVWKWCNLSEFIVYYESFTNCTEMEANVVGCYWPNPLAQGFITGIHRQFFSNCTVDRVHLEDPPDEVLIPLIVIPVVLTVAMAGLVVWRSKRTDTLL

[4] = ASSAY (IV) determination of solubility; format: physicochemical
Procedure, shortened: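 Polypeptide stock in water ([…]) was mixed 1:1 with 100 mM buffers: glycylglycine at pH 3.0, 4.0, 5.0 and bistrispropane at pH 6.0, 6.5, 7.0, 7.5, 8.0. After 18 hours at room temperature, samples were centrifuged and polypeptide concentration measured by UPLC.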

[5] = Table 7, rat binding selectivity, rCTR IC50 / rAmylin-R IC50
[6] = Table 7a (preferred compounds), rat binding selectivity, rCTR IC50 / rAmylin-R IC50
[7] = ratio of rCTR bind IC50 to rAmylin-R bind IC50
[8] = hCTR funct. EC50 divided by hAmylin-R funct. EC50
[9] = hCTR funct. EC50 over hAmylin-R funct. EC50
[10] = human functional selectivity: hCTR funct. EC50 / hAmylin-R funct. EC50
[11] = Table 5, selectivity, hCTR bind IC50 / hAmylin-R bind IC50
[12] = Table 5a, selectivity, hCTR bind IC50 / hAmylin-R bind IC50
[13] = Table 5b, selectivity, hCTR bind IC50 / hAmylin-R bind IC50
[14] = Table 5c, selectivity, hCTR bind IC50 / hAmylin-R bind IC50
[15] = Table 7, human binding selectivity, included for comparison
[16] = Table 7a (preferred compounds), human binding selectivity, included for comparison
[17] = ratio of human calcitonin receptor binding IC50 to human amylin receptor binding IC50
[18] = bistrispropane buffer, pH 6.5, read-out: Solubility pH 6.5 Concentration
[19] = bistrispropane buffer, pH 7.5, read-out: Solubility pH 7.5 Concentration
[20] = bistrispropane buffer, pH 6.0, read-out: Solubility pH 6.0 Concentration
[21] = bistrispropane buffer, pH 7.0, read-out: Solubility pH 7.0 Concentration
[22] = bistrispropane buffer, pH 8.0, read-out: Solubility pH 8.0 Concentration
[23] = glycylglycine buffer, pH 3.0, read-out: Solubility pH 3.0 Concentration
[24] = glycylglycine buffer, pH 4.0, read-out: Solubility pH 4.0 Concentration
[25] = glycylglycine buffer, pH 5.0, read-out: Solubility pH 5.0 Concentration

IC50 (rat calcitonin receptor)	IC50 ([1]; Table 7)	Ratio rCT/rAmylin binding [1, 5]	Ratio rCT/rAmylin binding [1, 6]	Ratio rCT/rAmylin binding [1, 7]	Ratio hCT/hAmylin funct. [2, 8]	Ratio hCT/hAmylin funct. [2, 9]	Ratio hCT/hAmylin funct. [2, 10]	Ratio hCT/hAmylin binding [3, 11]	Ratio hCT/hAmylin binding [3, 12]	Ratio hCT/hAmylin binding [3, 15]	Ratio hCT/hAmylin binding [3, 16]	solubility at 18 h [4, 18]	solubility at 18 h [4, 19]	solubility at 18 h [4, 20]	solubility at 18 h [4, 21]	solubility at 18 h [4, 22]	solubility at 18 h [4, 23]	solubility at 18 h [4, 24]	solubility at 18 h [4, 25]	Structure (SMILES)	further results
131 nM	3.48 nM	37.7	37.7	37.7	46.2	46.2	46.2	56.5	56.5	56.5	56.5	≥ 200 µM	≥ 200 µM	≥ 200 µM	≥ 200 µM	≥ 200 µM	≥ 200 µM	≥ 200 µM	≥ 200 µM	CC[C@H](C)[C@H](NC(=O)[C@H](C)NC(=O)CNC(=O)[C@H](Cc1ccccc1)NC(=O)[C@H](CC(N)=O)NC(=O)[C@@H]1CCCN1C(=O)[C@H](CO)NC(=O)[C@H](CO)NC(=O)[C@H](Cc1c[nH]cn1)NC(=O)[C@H](CCCNC(=N)N)NC(=O)[C@H](CC(C)C)NC(=O)[C@H](Cc1ccccc1)NC(=O)[C@H](CC(N)=O)NC(=O)[C@H](C)NC(=O)[C@H](CC(C)C)NC(=O)[C@H](CCCNC(=N)N)NC(=O)[C@H](CCC(N)=O)NC(=O)[C@@H](NC(=O)[C@H](C)NC(=O)[C@@H]1CSSC[C@H](NC(=O)[C@@H](N)CCCCNC(=O)COCCOCCNC(=O)COCCOCCNC(=O)CC[C@H](NC(=O)CCCCCCCCCCCCCCCCCCC(=O)O)C(=O)O)C(=O)N[C@@H](CC(N)=O)C(=O)N[C@@H]([C@@H](C)O)C(=O)N[C@@H](C)C(=O)N[C@@H]([C@@H](C)O)C(=O)N1)[C@@H](C)O)C(=O)N1CCC[C@H]1C(=O)N[C@@H](CO)C(=O)N[C@@H](CO)C(=O)N[C@H](C(=O)N[C@@H](CC(N)=O)C(=O)N[C@H](C(=O)NCC(=O)N[C@@H](CO)C(=O)N[C@@H](CCC(=O)O)C(=O)N[C@H](C(=O)N[C@@H](Cc1ccc(O)cc1)C(N)=O)[C@@H](C)O)C(C)C)[C@@H](C)O [Example 25]	Ratio hCT/hAmylin binding [3, 13]: 56.5; Ratio hCT/hAmylin binding [3, 14]: 56.5; Ratio hCT/hAmylin binding [3, 17]: 56.5
1.61 nM	0.152 nM	10.6	10.6	–	0.8	0.8	0.8	0.4	–	0.4	0.4	≥ 200 µM	≥ 200 µM	≥ 200 µM	≥ 200 µM	≥ 200 µM	≥ 200 µM	≥ 200 µM	≥ 200 µM	CC[C@H](C)[C@H](NC(=O)[C@H](C)NC(=O)CNC(=O)[C@H](Cc1ccccc1)NC(=O)[C@H](CC(N)=O)NC(=O)[C@@H]1CCCN1C(=O)[C@H](CO)NC(=O)[C@H](CO)NC(=O)[C@H](Cc1c[nH]cn1)NC(=O)[C@H](CCCNC(=N)N)NC(=O)[C@H](CC(C)C)NC(=O)[C@H](Cc1ccccc1)NC(=O)[C@H](CCC(=O)O)NC(=O)[C@H](C)NC(=O)[C@H](CC(C)C)NC(=O)[C@H](CCCNC(=N)N)NC(=O)[C@H](CCC(N)=O)NC(=O)[C@@H](NC(=O)[C@H](C)NC(=O)[C@@H]1CSSC[C@H](NC(=O)[C@@H](N)CCCCNC(=O)CC[C@H](NC(=O)CC[C@H](NC(=O)CCCCCCCCCCCCCCCCCCC(=O)O)C(=O)O)C(=O)O)C(=O)N[C@@H](CC(N)=O)C(=O)N[C@@H]([C@@H](C)O)C(=O)N[C@@H](C)C(=O)N[C@@H]([C@@H](C)O)C(=O)N1)[C@@H](C)O)C(=O)N1CCC[C@H]1C(=O)N[C@@H](CO)C(=O)N[C@@H](CO)C(=O)N[C@H](C(=O)N[C@@H](CC(N)=O)C(=O)N[C@H](C(=O)NCC(=O)N1CCC[C@H]1C(=O)N[C@@H](CCC(=O)O)C(=O)N[C@H](C(=O)N1CCC[C@H]1C(N)=O)[C@@H](C)O)C(C)C)[C@@H](C)O [Example 125] (H-K([γGlu-γGlu-C20 diacid])CNTATCATQRLAEFLRHSSPNFGAIPSSTNVGPETP-NH2; disulfide 2-7 (inferred); N-terminus assumed)	Ratio hCT/hAmylin funct. ([2]; hCTR funct. EC50 / hAmylin-R funct. EC50): 0.8
128 nM	1.97 nM	64.7	64.7	64.7	60.7	60.7	60.7	126.1	126.1	126.1	126.1	≥ 200 µM	≥ 200 µM	≥ 200 µM	≥ 200 µM	≥ 200 µM	≥ 200 µM	≥ 200 µM	≥ 200 µM	CC[C@H](C)[C@H](NC(=O)[C@H](C)NC(=O)CNC(=O)[C@H](Cc1ccccc1)NC(=O)[C@H](CC(N)=O)NC(=O)[C@@H]1CCCN1C(=O)[C@H](CO)NC(=O)[C@H](CO)NC(=O)[C@H](Cc1c[nH]cn1)NC(=O)[C@H](CCCNC(=N)N)NC(=O)[C@H](CC(C)C)NC(=O)[C@H](Cc1ccccc1)NC(=O)[C@H](CCCNC(=N)N)NC(=O)[C@H](C)NC(=O)[C@H](CC(C)C)NC(=O)[C@H](CCCNC(=N)N)NC(=O)[C@H](CCC(N)=O)NC(=O)[C@@H](NC(=O)[C@H](C)NC(=O)[C@@H]1CSSC[C@H](NC(=O)[C@@H](N)CCCCNC(=O)COCCOCCNC(=O)CC[C@H](NC(=O)CCCCCCCCCCCCCCCCCCC(=O)O)C(=O)O)C(=O)N[C@@H](CC(N)=O)C(=O)N[C@@H]([C@@H](C)O)C(=O)N[C@@H](C)C(=O)N[C@@H]([C@@H](C)O)C(=O)N1)[C@@H](C)O)C(=O)N1CCC[C@H]1C(=O)N[C@@H](CO)C(=O)N[C@@H](CO)C(=O)N[C@H](C(=O)N1CCC[C@H]1C(=O)N[C@H](C(=O)NCC(=O)N[C@@H](CO)C(=O)N[C@@H](CC(N)=O)C(=O)N[C@H](C(=O)N[C@@H](Cc1ccc(O)cc1)C(N)=O)[C@@H](C)O)C(C)C)[C@@H](C)O [Example 64] (H-K([AEEA-γGlu-C20 diacid])CNTATCATQRLARFLRHSSPNFGAIPSSTPVGSNTY-NH2; disulfide 2-7; N-terminus assumed)	EC50 ([2]; human amylin receptor functional potency, assay (II), read-out: hAmylin-R funct. EC50): 0.378 nM; IC50 ([3]; Table 4, read-out: hAmylin-R bind IC50): 0.444 nM; Ratio hCT/hAmylin binding [3, 13]: 126.1; Ratio hCT/hAmylin binding [3, 14]: 126.1; Ratio hCT/hAmylin binding [3, 17]: 126.1
